Test results published in patent US20160038505A1, “METHODS AND COMPOSITIONS FOR TREATING IMPULSE CONTROL DISORDER, ANXIETY-RELATED DISORDERS, VIOLENCE AND/OR ANGER, OR REGULATING FOOD INTAKE” (priority 2014, published 2016).
“Also recorded” adds a separate entry of the source.

Key:
[1] = Pharmacokinetics of noribogaine in healthy male volunteers (plasma, urine, LCMSMS)
[2] = tested on: healthy, drug-free male volunteers; assay: Pupillometry (pupillary miosis) in healthy volunteers; format: in vivo, human; conditions: 3-60 mg single oral dose, vs placebo p>0.9
Experimental: Pulse oximetry and capnography data were collected continuously using a GE Carescape B650 monitoring system from 2 hours prior to dosing and until six hours after dosing, and thereafter at 12, 24, 48 and 72 hours post-dosing. […] Pupillary miosis was assessed by pupillometry.

[3] = tested on: opioid-dependent participants; assay: Treatment emergent adverse events in opioid-dependent participants (Phase IB); format: in vivo, human
Experimental: This example is to illustrate that noribogaine can be administered at a therapeutic dosing while maintaining an acceptable QT interval.
See PCT Application No. PCT/US2013/069235, filed Nov. 8, 2013, which is incorporated herein by reference in its entirety.
Three cohorts of nine (9) subjects (6 administered noribogaine and 3 administered placebo in each cohort) were evaluated for tolerability, pharmacokinetics, and efficacy. Cohort 1 received a single dose of 60 mg noribogaine or placebo. Cohort 2 received a single dose of 120 mg noribogaine or placebo. Cohort 3 received a single dose of 180 mg noribogaine or placebo.

Sprague-Dawley rat = assay: Food maintained responding test, regulation of food intake in rats; format: in vivo
[4] = tested on: healthy, drug-free male volunteers; assay: Cold pressor test in healthy volunteers; format: in vivo, human; conditions: 3-60 mg single oral dose, 1° C. water
Experimental: Analgesic effect was assessed based on duration of hand immersion in ice water and on visual analog scale (VAS) pain scores upon hand removal from the water bath.
Safety and tolerability of noribogaine were tested in the group of volunteers from Example 9. […] Safety evaluations included clinical monitoring, recording of adverse events (AEs), safety laboratory tests, vital signs, ECG telemetry from −2 h to 6 h after dosing, and 12-lead electrocardiograms (ECGs) up to 216 hours post-dosing.

[5] = Human pharmacokinetic study, single oral tablet, fasting healthy volunteers (serum); format: in vivo; conditions: fasting, serum
Experimental: In double blind studies, fasting healthy volunteers (6 per cohort) were treated once orally with a tablet of noribogaine HCl. In escalating cohorts, the volunteers received 3 mg, 10 mg, 30 mg or 60 mg noribogaine.

[6] = 30 mg single oral dose, plasma, mean (SD), n = 6

CC[C@H]1CC2C[C@H]3c4[nH]c5ccc(O)cc5c4CCN(C2)C13 [noribogaine]
CL/F ([1]; 3 mg single oral dose, plasma, mean (SD), n = 6): 41.4 (7.0) L/h | CL/F ([1]; 10 mg single oral dose, plasma, mean (SD), n = 6): 42.3 (12.0) L/h | CL/F [1, 6]: 46.9 (16.4) L/h | Tmax [1, 6]: 1.8 (0.6) hr | CL/F ([1]; 60 mg single oral dose, plasma, mean (SD), n = 6): 34.0 (11.4) L/h | dose dependence of Cmax and AUC ([1]; 3-60 mg): increased linearly with dose | mean half-life estimates ([1]; across dose groups 3-60 mg): 28 to 50 h | time of peak concentrations after oral dosing ([1]; across dose groups 3-60 mg): 2 to 3 h | volume of distribution ([1]; across dose groups 3-60 mg): 1417 to 3086 L | pupillary constriction (pupil diameter) [2]: no evidence of pupillary constriction | Adverse event: Catheter Site Infection ([3]; 60 mg (N = 6)): 0 | Adverse event: Catheter Site Pain ([3]; 60 mg (N = 6)): 0 | Adverse event: Catheter Site Related Reaction ([3]; 60 mg (N = 6)): 0 | Adverse event: Cellulitis ([3]; 60 mg (N = 6)): 0 | Adverse event: Diarrhoea ([3]; 60 mg (N = 6)): 0 | Adverse event: Dry Mouth ([3]; 60 mg (N = 6)): 0 | Adverse event: Ear and Labyrinth Disorders ([3]; 60 mg (N = 6)): 0 | Adverse event: Epistaxis ([3]; 60 mg (N = 6)): 0 | Adverse event: Euphoric Mood ([3]; 60 mg (N = 6)): 0 | Adverse event: General Disorders and Administration Site Conditions ([3]; 60 mg (N = 6)): 0 | Adverse event: Hyperaesthesia ([3]; 60 mg (N = 6)): 0 | Adverse event: Infections and Infestations ([3]; 60 mg (N = 6)): 0 | Adverse event: Limb Discomfort ([3]; 60 mg (N = 6)): 0 | Adverse event: Malaise ([3]; 60 mg (N = 6)): 0 | Adverse event: Nausea ([3]; 60 mg (N = 6)): 0 | Adverse event: Oropharyngeal Pain ([3]; 60 mg (N = 6)): 0 | Adverse event: Pseudoparalysis ([3]; 60 mg (N = 6)): 0 | Adverse event: Respiratory, Thoracic and Mediastinal Disorders ([3]; 60 mg (N = 6)): 0 | Adverse event: Rhinorrhoea ([3]; 60 mg (N = 6)): 0 | Adverse event: Skin Discomfort ([3]; 60 mg (N = 6)): 0 | Adverse event: Skin Irritation ([3]; 60 mg (N = 6)): 0 | Adverse event: Skin and Subcutaneous Tissue Disorders ([3]; 60 mg (N = 6)): 0 | Adverse event: Somnoience ([3]; 60 mg (N = 6)): 0 | Adverse event: Tinnitus ([3]; 60 mg (N = 6)): 0 | Adverse event: Tremor ([3]; 60 mg (N = 6)): 0 | Adverse event: Urinary Tract Infection ([3]; 60 mg (N = 6)): 0 | Adverse event: Vomiting ([3]; 60 mg (N = 6)): 0 | Adverse event: Back Pain ([3]; 120 mg (N = 6)): 0 | Adverse event: Catheter Site Infection ([3]; 120 mg (N = 6)): 0 | Adverse event: Catheter Site Related Reaction ([3]; 120 mg (N = 6)): 0 | Adverse event: Depressed Mood ([3]; 120 mg (N = 6)): 0 | Adverse event: Dry Eye ([3]; 120 mg (N = 6)): 0 | Adverse event: Dyspepsia ([3]; 120 mg (N = 6)): 0 | Adverse event: Euphoric Mood ([3]; 120 mg (N = 6)): 0 | Adverse event: Limb Discomfort ([3]; 120 mg (N = 6)): 0 | Adverse event: Malaise ([3]; 120 mg (N = 6)): 0 | Adverse event: Musculoskeletal and Connective Tissue Disorders ([3]; 120 mg (N = 6)): 0 | Adverse event: Psychiatric Disorders ([3]; 120 mg (N = 6)): 0 | Adverse event: Somnoience ([3]; 120 mg (N = 6)): 0 | Adverse event: Urinary Tract Infection ([3]; 120 mg (N = 6)): 0 | Adverse event: Catheter Site Infection ([3]; 180 mg (N = 6)): 0 | Adverse event: Catheter Site Pain ([3]; 180 mg (N = 6)): 0 | Adverse event: Depressed Mood ([3]; 180 mg (N = 6)): 0 | Adverse event: Diarrhoea ([3]; 180 mg (N = 6)): 0 | Adverse event: Dry Eye ([3]; 180 mg (N = 6)): 0 | Adverse event: Dyspepsia ([3]; 180 mg (N = 6)): 0 | Adverse event: Ear and Labyrinth Disorders ([3]; 180 mg (N = 6)): 0 | Adverse event: Epistaxis ([3]; 180 mg (N = 6)): 0 | Adverse event: Euphoric Mood ([3]; 180 mg (N = 6)): 0 | Adverse event: Hyperaesthesia ([3]; 180 mg (N = 6)): 0 | Adverse event: Malaise ([3]; 180 mg (N = 6)): 0 | Adverse event: Oropharyngeal Pain ([3]; 180 mg (N = 6)): 0 | Adverse event: Pseudoparalysis ([3]; 180 mg (N = 6)): 0 | Adverse event: Psychiatric Disorders ([3]; 180 mg (N = 6)): 0 | Adverse event: Respiratory, Thoracic and Mediastinal Disorders ([3]; 180 mg (N = 6)): 0 | Adverse event: Rhinorrhoea ([3]; 180 mg (N = 6)): 0 | Adverse event: Skin Discomfort ([3]; 180 mg (N = 6)): 0 | Adverse event: Skin Irritation ([3]; 180 mg (N = 6)): 0 | Adverse event: Skin and Subcutaneous Tissue Disorders ([3]; 180 mg (N = 6)): 0 | Adverse event: Somnoience ([3]; 180 mg (N = 6)): 0 | Adverse event: Tinnitus ([3]; 180 mg (N = 6)): 0 | Adverse event: Tremor ([3]; 180 mg (N = 6)): 0 | hallucinatory effects ([3]; 60, 120 or 180 mg single dose): no hallucinatory effects | decrease in food intake (Sprague-Dawley rat; 25 mg/kg PO, P<0.05): 10% | decrease in food intake (Sprague-Dawley rat; 50 mg/kg PO, P<0.001): 25% | effect on food consumption compared to vehicle (Sprague-Dawley rat; noribogaine 12.5 mg/kg PO 2 hours prior to test): no significant effect; also recorded: no effect on food consumption | effect on food consumption compared to vehicle (Sprague-Dawley rat; noribogaine 25 mg/kg PO 2 hours prior to test, P<0.05): significantly decreased food consumption | effect on food consumption compared to vehicle (Sprague-Dawley rat; noribogaine 50 mg/kg PO 2 hours prior to test, P<0.001): significantly decreased food consumption | analgesic effect (duration of hand immersion, VAS pain scores) [4]: no analgesic effect | mean AUC/24 hr ([5]; single dose of 3 mg): 3.1 ng/mL | time after administration at which mean Cmax was observed ([5]; single dose of 3 mg): 1.9 h | mean AUC/24 hr ([5]; single dose of 10 mg): 10.6 ng/mL | time after administration at which mean Cmax was observed ([5]; single dose of 10 mg): 2.9 h | mean AUC/24 ([5]; single dose of 30 mg): 29.2 ng/mL | time after administration at which mean Cmax was observed ([5]; single dose of 30 mg): 1.75 h | mean AUC/24 ([5]; single dose of 60 mg): 61 ng/mL | time after administration at which mean Cmax was observed ([5]; single dose of 60 mg): 1.75 h
